Test [1] deals with T1, human matriptase-2 (Homo sapiens, UniProt Q8IU80).
T1 construct: The conditioned medium of HEK-MT2 cells was used as a source of matriptase-2 activity; expressed in transfected cells; host or cells: HEK-MT2 cells (conditioned medium, collected and concentrated)
T1 sequence (Q8IU80 577-811 limits assumed): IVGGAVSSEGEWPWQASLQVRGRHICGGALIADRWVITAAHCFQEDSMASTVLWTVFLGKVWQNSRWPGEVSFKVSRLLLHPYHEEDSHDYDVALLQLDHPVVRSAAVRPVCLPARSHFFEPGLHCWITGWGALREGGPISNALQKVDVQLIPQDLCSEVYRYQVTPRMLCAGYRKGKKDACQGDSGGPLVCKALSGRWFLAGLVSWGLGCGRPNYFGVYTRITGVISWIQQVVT
T1 sequence (Q8IU80 438-576 partner limits assumed): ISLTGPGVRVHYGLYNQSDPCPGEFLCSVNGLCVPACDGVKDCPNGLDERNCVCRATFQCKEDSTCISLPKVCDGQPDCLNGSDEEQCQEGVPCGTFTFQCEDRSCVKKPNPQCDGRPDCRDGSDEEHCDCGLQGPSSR
The experiment in a line: Human matriptase-2 inhibition, fluorogenic substrate Boc-Gln-Ala-Arg-AMC, conditioned medium of HEK-MT2 cells. Conditions: for IC50: substrate 40 µM, pH 8.0, 37 °C; for matriptase-2 inhibitory activity in words: screening at single inhibitor concentration of 40 µM. In kind it is biochemical. How it is done:
The conditioned medium of HEK-MT2 cells was used as a source of matriptase-2 activity and assay conditions were as follows. Assay buffer was 50 mM Tris–HCl, 150 mM NaCl, pH 8.0. The conditioned medium was collected and concentrated, and aliquots of the supernatant were stored at −20 °C. After thawing, it was diluted with assay buffer (1:10 or 1:20 depending on the enzyme activity) and kept at 0 °C not longer than 8 h. The assays were performed at a FLUOstar OPTIMA PlateReader (BMG Labtech, Ortenberg, Germany). A 10 mM stock solution of the fluorogenic substrate Boc-Gln-Ala-Arg-AMC (Bachem, Bubendorf, Switzerland) in DMSO was diluted with assay buffer. The final concentration of the substrate was 40 µM and of DMSO was 6%. The substrate concentration of 40 µM refers to 1.24 × Km. Into each well containing 163.8 µL buffer, 11.2 µL of an inhibitor solution in DMSO and 10 µL of a substrate solution (800 µM) were added and thoroughly mixed. At 37 °C the reaction was initiated by adding 15 µL of diluted conditioned medium and followed over 400 s. All measurements were performed in duplicate with a single inhibitor concentration of 40 µM. Active inhibitors were investigated in duplicate with five different concentrations. Benzamidine hydrochloride was purchased from Acros Organics (Geel, Belgium).
Progress curves were analyzed by linear regression. IC50 values were determined by nonlinear regression using the equation vs = v0/(1 + [I]/IC50), where vs is the steady-state rate, v0 is the rate in the absence of the inhibitor, and [I] is the inhibitor concentration. Standard errors of the mean (SEM) values refer to this nonlinear regression.

Test [2] concerns thrombin. The settings on record: cited from earlier work; for thrombin inhibition relative to trypsin and factor Xa, in words: ref [39],[41].
Test [3] concerns the target T1, human matriptase-2. The experiment in a line: Human matriptase-2 inhibition, fluorogenic substrate Boc-Gln-Ala-Arg-AMC, conditioned medium of HEK-MT2 cells. In kind it is biochemical. Conditions: substrate concentrations of 20, 30, 40, 50 and 60 µM.
The mark [4] stands for this setting: Table 2, 2,3-dihydro-1,4-benzodioxines and 3,4-dihydro-2H-1,4-benzoxazines, values with SEM: duplicate, five inhibitor concentrations, limits: duplicate, single inhibitor concentration of 40 µM, read-out: IC50 (µM) ± SEM.
The mark [5] stands for this setting: read-out: IC50 value for matriptase-2 inhibition.
[6] abbreviates: Table 1, 4H-3,1-benzothiazin-4-ones, values with SEM: duplicate, five inhibitor concentrations, limits: duplicate, single inhibitor concentration of 40 µM, read-out: IC50 (µM) ± SEM.

Like-named read-outs stand apart in the source and are kept apart here.

Broadly, the IC50 is the concentration that inhibits the measured activity by half. For `N=C(N)c1ccc(OC[C@@H]2COc3ccc(N(Cc4ccccc4)C(=O)C(=O)O)cc3O2)cc1` [(R)-10], the IC50 in test [1] (setting [4]) was determined as 27.3 ± 2 µM.
On to `N=C(N)c1ccc(OC[C@@H]2COc3cc(N(Cc4ccccc4)C(=O)C(=O)O)ccc3O2)cc1` [(R)-11], for which the 50% inhibitory concentration (IC50) in test [1] (setting [4]) stood at 33.6 ± 1.1 µM.
On to `CCOC(=O)C1CCN(c2ccc(N3C[C@@H](CNCc4ccc(C(=N)N)cc4)OC3=O)cc2)CC1` [(R)-24], for which, in test [1] (setting [4]), the IC50 was more than 40 µM. Further, in test [1], the “matriptase-2 inhibitory activity in words” value is “inactive”.
On to `N=C(N)c1ccc(OC[C@H]2COc3ccc(N(Cc4ccccc4)C(=O)C(=O)O)cc3O2)cc1` [(S)-10], for which, in test [1] (setting [4]), the IC50 was determined as 16.7 ± 1.7 µM.
On the same count and under the same terms, for `N=C(N)c1ccc(OC[C@H]2COc3cc(N(Cc4ccccc4)C(=O)C(=O)O)ccc3O2)cc1` [(S)-11] the value was 29.8 ± 1.6 µM.
Take `CCOC(=O)C(=O)N(Cc1ccccc1)c1ccc2c(c1)O[C@@H](COc1ccc(C(=N)N)cc1)CO2` [(S)-12, (S)-Ethyl 2-(benzyl(3-((4-carbamidoylphenoxy)methyl)-2,3-dihydrobenzo[b][1,4]dioxin-6-yl)amino)-2-oxoacetate]: the “thrombin inhibition in words” value in test [2] (ref [38]) is “highly potent”. Besides, the IC50 was 8.47 ± 0.76 µM in test [1] (setting [4]) and less than 10 µM in test [1] (setting [5]).
Consider `N=C(N)c1ccccc1` [Benzamidine, reference compound], for which the “matriptase-2 inhibitory activity in words” value in test [1] is recorded as “lack of inhibitory activity”. For the same molecule, the IC50 in test [1] (setting [5]) is more than 400 µM.
For `CN(C)CCNC(=O)c1ccc2nc(NC(=O)c3ccccc3)sc(=O)c2c1` [Compound 1], in test [1] (setting [6]), the IC50 is 148 ± 28 µM.
On to `CN(C)CCNC(=O)c1ccc2c(=O)sc(NC(=O)c3ccccc3)nc2c1` [Compound 2], for which, in test [1] (setting [6]), the half-maximal inhibitory concentration (IC50) was more than 160 µM. Moreover, the “matriptase-2 inhibitory activity in words” value in test [1] was “loss of activity”.
Consider `CN1CCN(C(=O)c2ccc3nc(NC(=O)c4ccccc4)sc(=O)c3c2)CC1` [Compound 3], for which, in test [1] (setting [6]), the IC50 is more than 160 µM.
Still for that read-out and setting: for `CN1CCN(C(=O)c2ccc3c(=O)sc(NC(=O)c4ccccc4)nc3c2)CC1` [Compound 4] the value was more than 160 µM.
For the molecule `O=C(Nc1nc2ccc(C(=O)N3CCN(Cc4ccccc4)CC3)cc2c(=O)s1)c1ccccc1` [Compound 5], the IC50 in test [1] (setting [6]) is more than 160 µM. Also, the “matriptase-2 inhibitory activity in words” value in test [1] is “inactive”.
For `O=C(Nc1nc2cc(C(=O)N3CCN(Cc4ccccc4)CC3)ccc2c(=O)s1)c1ccccc1` [Compound 6], the half-maximal inhibitory concentration (IC50) in test [1] (setting [6]) is more than 160 µM.
Consider `NCc1ccc(C(=O)Nc2nc3ccccc3c(=O)s2)cc1` [Compound 7], for which the IC50 in test [1] (setting [6]) amounted to 119 ± 9 µM. In addition, the “matriptase-2 inhibitory activity in words” value in test [1] is reported as “active”.
On the same counts, the results for `CN1CCN(C(=O)c2ccc(C(=O)Nc3nc4ccccc4c(=O)s3)cc2)CC1` [Compound 8] are more than 160 µM and “inactive”.
For `O=C(Nc1nc2ccccc2c(=O)s1)c1ccc(C(=O)N2CCN(Cc3ccccc3)CC2)cc1` [Compound 9] the same measures were more than 160 µM and “inactive”.
Turning to `CN1CC(C)(COc2ccc(C(=N)N)cc2)Oc2cc(N(Cc3ccc(F)cc3)C(=O)C(=O)O)ccc21` (stereo not shown) [Compound 13], in test [2], the “thrombin inhibition relative to trypsin and factor Xa, in words” value is “inhibited thrombin better than trypsin and factor Xa”. Further, in test [2] (ref [39]), the “thrombin inhibition in words” value is reported as “highly active”. Besides, the IC50 in test [1] (setting [4]) is more than 40 µM. Moreover, in test [1], the “matriptase-2 inhibitory activity in words” value is “inactive”.
`CN1CC(C)(COc2ccc(C(=N)N)cc2)Oc2ccc(N(Cc3cc(F)cc(F)c3)C(=O)C(=O)O)cc21` (stereo not shown) [Compound 14]: the IC50 in test [1] (setting [4]) was 35.8 ± 1.1 µM.
As to `CN1CC(C)(COc2ccc(C(=N)N)cc2)Oc2cc(N(CC(=O)O)Cc3cc(F)cc(F)c3)ccc21` (stereo not shown) [Compound 15], in test [2], the “thrombin inhibition relative to trypsin and factor Xa, in words” value is “inhibited thrombin better than trypsin and factor Xa”. Also, the half-inhibitory concentration (IC50) in test [1] (setting [4]) is 25.8 ± 4 µM.
With `CN1CC(C)(COc2ccc(C(=N)N)cc2)Oc2cc(N(CC(=O)O)Cc3ccc(F)cc3)ccc21` (stereo not shown) [Compound 16], in test [2], the “thrombin inhibition relative to trypsin and factor Xa, in words” value is “inhibited thrombin better than trypsin and factor Xa”. Also, the IC50 in test [1] (setting [4]) was 13.6 ± 2.31 µM.
`CN1CC(C)(COc2ccc(C(=N)N)cc2)Oc2ccc(N(CC(=O)O)Cc3ccc(F)cc3)cc21` (stereo not shown) [Compound 17]: the IC50 in test [1] (setting [4]) turned out to be 11.2 ± 1.61 µM.
Same read-out and setting: then `CCOC(=O)CN(Cc1ccc(F)cc1)c1ccc2c(c1)OC(C)(COc1ccc(C(=N)N)cc1)CN2C` (stereo not shown) [Compound 18], with 31.6 ± 2.69 µM.
With `CN1CC(C)(COc2ccc(C(=N)N)cc2)Oc2cc(NC(=O)CCC(=O)O)ccc21` (stereo not shown) [Compound 19], the “type of inhibition (Lineweaver-Burk plot)” value in test [3] was “mixed type of inhibition”. Further, the half-maximal inhibitory concentration (IC50) in test [1] (setting [4]) came out at 38.8 ± 3.14 µM. Also, in test [1], the “matriptase-2 inhibitory activity in words” value was “moderately active”.
In the case of `COC(=O)C(Cc1ccccc1)C(=O)Nc1ccc2c(c1)OC(C)(COc1ccc(C(=N)N)cc1)CN2C` (stereo not shown) [Compound 20], the half-inhibitory concentration (IC50) in test [1] (setting [4]) was determined as 31.4 ± 3.6 µM. In test [1], the “matriptase-2 inhibitory activity in words” value was “moderately active”.
As to `CN1C(=O)C(OCc2ccc(C(=N)N)cc2)Oc2cc(C(=O)Nc3ccccc3)ccc21` (stereo not shown) [Compound 21], the 50% inhibitory concentration (IC50) in test [1] (setting [4]) was found to be 42.6 ± 4.7 µM.
The same measure, in the same setting: for `N=C(N)c1ccc(CN2C(=O)COc3cc(NC(=O)[C@H](N)Cc4ccccc4)ccc32)cc1` [Compound 22] the value was 30.9 ± 3.4 µM; for `CCOC(=O)[C@H](CNC(=O)CN1C(=O)COc2cc(NC(=O)c3ccc(C(=N)N)cc3)ccc21)NS(=O)(=O)c1ccc(C)cc1` [Compound 23], 20.5 ± 2 µM.
As to `COc1ccc2cc(S(=O)(=O)NN(Cc3cccc(C(=N)N)c3)C(=O)N(C)C3CCCC3)ccc2c1` [Compound 25], the concentration for half-maximal inhibition (IC50) in test [1] (setting [4]) is more than 40 µM. Also, the “matriptase-2 inhibitory activity in words” value in test [1] is “inactive”.

Values taken from publication PMC4812366, “3,1-Benzothiazines, 1,4-Benzodioxines and 1,4-Benzoxazines as Inhibitors of Matriptase-2: Outcome of a Focused Screening Approach” (Pharmaceuticals, 2016).
